{
  "source": "paper PMC11088877",
  "about": "“AMP-activated protein kinase can be allosterically activated by ADP but AMP remains the key activating ligand” (Biochemical Journal, 2024)",
  "key": {"[1]": {"target": "T1, human α2β2γ1 complex, CBS3 mutant (V276G/L277G) (Homo sapiens, UniProt P54619+P54646, L277G/V276G)", "T1 construct": "made in house; host or cells: Escherichia coli", "T1 sequence (P54619 whole entry V276G/L277G)": "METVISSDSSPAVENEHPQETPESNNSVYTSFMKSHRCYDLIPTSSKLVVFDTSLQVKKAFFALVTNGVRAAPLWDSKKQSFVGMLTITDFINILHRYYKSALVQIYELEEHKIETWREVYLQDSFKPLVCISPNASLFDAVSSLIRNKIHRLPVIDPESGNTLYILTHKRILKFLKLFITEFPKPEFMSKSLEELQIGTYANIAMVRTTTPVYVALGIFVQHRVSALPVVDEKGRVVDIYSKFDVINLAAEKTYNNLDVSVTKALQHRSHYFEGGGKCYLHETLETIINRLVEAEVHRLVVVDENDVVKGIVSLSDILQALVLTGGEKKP", "T1 sequence (P54646 whole entry)": "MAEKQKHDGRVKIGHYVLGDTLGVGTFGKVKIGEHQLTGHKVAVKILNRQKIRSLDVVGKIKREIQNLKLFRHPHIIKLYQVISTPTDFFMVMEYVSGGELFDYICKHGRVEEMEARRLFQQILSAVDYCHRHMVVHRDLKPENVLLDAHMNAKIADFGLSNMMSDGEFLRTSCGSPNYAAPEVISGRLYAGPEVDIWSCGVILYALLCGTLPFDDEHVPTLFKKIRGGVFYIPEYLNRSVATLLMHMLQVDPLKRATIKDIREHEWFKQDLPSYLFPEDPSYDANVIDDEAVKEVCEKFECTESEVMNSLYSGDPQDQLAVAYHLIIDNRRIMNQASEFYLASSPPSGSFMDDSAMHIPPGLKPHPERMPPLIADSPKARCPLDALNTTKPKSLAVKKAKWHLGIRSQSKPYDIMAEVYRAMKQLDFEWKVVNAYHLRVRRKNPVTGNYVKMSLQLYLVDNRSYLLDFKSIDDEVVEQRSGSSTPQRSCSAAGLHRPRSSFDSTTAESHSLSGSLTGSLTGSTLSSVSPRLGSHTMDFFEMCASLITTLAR", "T1 sequence (O43741 whole entry partner)": "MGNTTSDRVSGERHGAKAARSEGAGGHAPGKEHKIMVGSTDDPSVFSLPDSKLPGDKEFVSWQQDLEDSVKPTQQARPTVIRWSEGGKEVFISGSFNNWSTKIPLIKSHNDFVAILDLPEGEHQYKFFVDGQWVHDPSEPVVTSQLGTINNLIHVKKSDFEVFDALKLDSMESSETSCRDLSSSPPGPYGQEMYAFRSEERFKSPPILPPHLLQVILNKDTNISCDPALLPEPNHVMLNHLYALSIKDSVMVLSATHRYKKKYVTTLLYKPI", "assay": "AMPK inactivation and Thr172 dephosphorylation by PPM1A, CBS3 mutant", "assay_type": "biochemical", "conditions": "300 µM nucleotide, absence of ATP", "experimental": "The relative roles of the three CBS sites in the other two mechanisms of activation of AMPK by AMP or ADP, i.e. promotion of Thr172 phosphorylation by LKB1, and protection against Thr172 dephosphorylation by protein phosphatases, have not been examined previously. As expected, incubation of the α2β2γ1 AMPK complex with a fixed, limiting amount of purified LKB1:STRADα:MO25α complex in the presence of 200 µM Mg.ATP^2− caused a large degree of activation (Figure 5A) and phosphorylation (Figure 5B) of AMPK (unphosphorylated α2β2γ1 complex), which were stimulated more than 2-fold by 300 µM AMP and 1.6-fold by 300 µM ADP.\nFigure 6. Effects of AMP or ADP on AMPK inactivation and Thr172 dephosphorylation by PP2Cα (PPM1A). Human α2β2γ1 complexes (WT, or with L129D/V130D, V276G/L277G or I312G mutations affecting CBS1, CBS3 or CBS4 respectively), all phosphorylated on Thr172, were incubated with a fixed concentration of PP2Cα (PPM1A) in the presence or absence of AMP or ADP (both 300 µM) as described in the Materials and methods section. After the incubation, aliquots were withdrawn for (A) AMPK assay or (B) Western blots. […] For (B), due to a limit on the number of lanes that could be run on one gel, single replicates from the triplicate assays were analysed. […]"}, "rat liver AMPK": {"test_system": "rat liver AMPK", "assay": "Allosteric activation and inhibition of native rat liver AMPK by AMP and ADP (SAMS peptide kinase assay)", "assay_type": "biochemical", "parameters": "IC50/EC50: unit not given beside the values", "conditions": "for maximal extent of activation: Discussion (for ADP: rat liver AMPK and human α2β2γ1 complex); for effect of CD73 in the assay on allosteric activation by the nucleotide: AMP 0.3 mM or ADP 1 mM, CD73 550 ng", "text": "To study allosteric effects, we initially used a preparation of native rat liver AMPK [4]. While not homogeneous, this preparation has a high specific kinase activity (1.3 µmol/min/mg) and is a combination of the α1, α2, β1, β2 and γ1 subunit isoforms (Supplementary Figure S1). Being from a mammalian source both β subunit isoforms would be N-myristoylated and we have shown previously that the preparation is not contaminated with any protein phosphatases that dephosphorylate Thr172 [4]. We assessed the potential allosteric effects of both AMP and ADP at three different concentrations of ATP. We maintained Mg^2+ ions at a constant 4.8 mM excess above total ATP, a design that ensures that the concentration of the Mg.ATP^2− complex varies as a fixed proportion of total ATP [19].\nAs previously reported, with AMP we obtained bell-shaped curves due to activation at low concentrations combined with inhibition at higher concentrations (Figure 1). We have previously shown that the allosteric activation is due to binding of AMP to one or more of the regulatory sites on the γ subunit, whereas the inhibition is due to binding of AMP at the catalytic site within the α subunit kinase domain [4]. Consistent with the fact that ATP competes with AMP at both sites, as the ATP concentration was progressively raised from 0.2 to 1.0 and 5 mM, the bell-shaped curves shifted to the right, towards higher concentrations of AMP. The data were fitted to an equation for activation at one site and inactivation at a second site, as detailed in the legend to Figure 1. The best-fit parameters are shown in Supplementary Table S1, and these values were used to draw the curves in Figure 1A–C; the best-fit estimates for EC50 and IC50 are indicated by dashed vertical lines, faint lines for AMP and heavier lines for ADP.\nFigure 1. Allosteric activation of rat liver AMPK by AMP and ADP at three different concentrations of ATP. (A) 200 µM ATP; (B) 1 mM ATP; (C) 5 mM ATP. [Mg^2+] was maintained at a constant excess of 4.8 mM above [ATP] as recommended previously. Results (mean ± SD, n = 2) were fitted to the equation: Y = 1 + (((Activation-1) × X)/(EC50 + X))-(((activation) × X)/(IC50 + X)), where Y is the activity, X is the concentration of AMP or ADP, Activation is the extrapolated maximal activation by AMP or ADP, EC50 is the concentration of AMP or ADP causing half-maximal activation, and IC50 is the concentration of AMP or ADP causing half-maximal inhibition. The dashed vertical lines show the estimated EC50 and IC50 values, faint lines for AMP and bold lines for ADP. A reliable estimate of EC50 could not be computed for ADP at 0.2 mM ATP (graph (A)). Best-fit values of all parameters used to generate the curves are listed in Supplementary Table S1.\nFigure 2. Allosteric activation of rat liver AMPK by AMP and ADP in the presence and absence of the nucleotidase CD73. Allosteric activation was assessed as in Figure 1 with a single fixed concentration of AMP or ADP (0.3 or 1 mM respectively) in the presence or absence of CD73 (550 ng). Statistical significance of differences in results (mean ± SEM, n = 3) were assessed by two-way ANOVA. Effect of nucleotide: ****P < 0.0001; effect of CD73: ^††††P < 0.0001, ns, not significant.\nAMPK assays measured the transfer of radioactivity from [γ-^33P]ATP to a peptide substrate, which was separated from unreacted ATP by binding to P81 paper. This assay was described previously except that we used [γ-^33P] rather than [γ-^32P]ATP. In some assays (specified in Figure legends) the concentration of ATP was increased from 0.2 to 1 or 5 mM ATP, with MgCl2 concentrations maintained at a constant 4.8 mM excess above the concentration of ATP [19]. Where allosteric activation by AMP or ADP was being studied, we used the SAMS peptide as substrate. For all other assays the AMARA peptide was used."}},
  "note": "Values joined by “and” are separate entries in the source; they are usually repeats but may differ in a detail not shown here. Identical values can stand only once.",
  "data": [
    {"smiles": "Nc1ncnc2c1ncn2[C@@H]1O[C@H](COP(=O)(O)OP(=O)(O)O)[C@@H](O)[C@H]1O", "note": "[ADP]", "values": [
      {"measurement": "protective effect of nucleotide against PPM1A in the mutant", "setting": "[1]", "value": "almost completely abolished"},
      {"measurement": "maximal extent of activation", "setting": "rat liver AMPK; 5 mM ATP", "value": "≈ 1.5 fold"},
      {"measurement": "Activation (extrapolated maximal activation)", "setting": "rat liver AMPK; rat liver AMPK, 0.2 mM ATP", "value": "no activation was detectable and none"},
      {"measurement": "IC50", "setting": "rat liver AMPK; rat liver AMPK, 0.2 mM ATP", "value": 400, "unit": "µM"},
      {"measurement": "observed maximal extent of activation above basal", "setting": "rat liver AMPK; rat liver AMPK, 1 mM ATP", "value": "≈ 25%"},
      {"measurement": "Activation (extrapolated maximal activation)", "setting": "rat liver AMPK; rat liver AMPK, 1.0 mM ATP", "value": "2.4 fold and 2.4 (1.8 -??) fold"},
      {"measurement": "EC50", "setting": "rat liver AMPK; rat liver AMPK, 1.0 mM ATP", "value": 122, "unit": "µM"},
      {"measurement": "IC50", "setting": "rat liver AMPK; rat liver AMPK, 1.0 mM ATP", "value": 690, "unit": "µM"},
      {"measurement": "IC50/EC50", "setting": "rat liver AMPK; rat liver AMPK, 1.0 mM ATP", "value": "6 and 5.7"},
      {"measurement": "observed maximal extent of activation above basal", "setting": "rat liver AMPK; rat liver AMPK, 5 mM ATP", "value": "≈ 50%"},
      {"measurement": "Activation (extrapolated maximal activation)", "setting": "rat liver AMPK; rat liver AMPK, 5.0 mM ATP", "value": "2.0 fold and 2.0 (1.7 -2.8) fold"},
      {"measurement": "EC50", "setting": "rat liver AMPK; rat liver AMPK, 5.0 mM ATP", "value": 220, "unit": "µM"},
      {"measurement": "IC50", "setting": "rat liver AMPK; rat liver AMPK, 5.0 mM ATP", "value": 4000, "unit": "µM"},
      {"measurement": "IC50/EC50", "setting": "rat liver AMPK; rat liver AMPK, 5.0 mM ATP", "value": 18},
      {"measurement": "effect of CD73 in the assay on allosteric activation by the nucleotide", "setting": "rat liver AMPK; rat liver AMPK", "value": "did not significantly affect"}
    ]},
    {"smiles": "Nc1ncnc2c1ncn2[C@@H]1O[C@H](COP(=O)(O)O)[C@@H](O)[C@H]1O", "note": "[AMP]", "values": [
      {"measurement": "protective effect of nucleotide against PPM1A in the mutant", "setting": "[1]", "value": "almost completely abolished"},
      {"measurement": "maximal extent of activation", "setting": "rat liver AMPK; 5 mM ATP", "value": 3, "unit": "fold"},
      {"measurement": "Activation (extrapolated maximal activation)", "setting": "rat liver AMPK; rat liver AMPK, 0.2 mM ATP", "value": "2.9 (2.8 -3.0) fold"},
      {"measurement": "EC50", "setting": "rat liver AMPK; rat liver AMPK, 0.2 mM ATP", "value": 6.4, "unit": "µM"},
      {"measurement": "IC50", "setting": "rat liver AMPK; rat liver AMPK, 0.2 mM ATP", "value": 1700, "unit": "µM"},
      {"measurement": "IC50/EC50", "setting": "rat liver AMPK; rat liver AMPK, 0.2 mM ATP", "value": 270},
      {"measurement": "Activation (extrapolated maximal activation)", "setting": "rat liver AMPK; rat liver AMPK, 1.0 mM ATP", "value": "2.8 (2.7-2.9) fold"},
      {"measurement": "EC50", "setting": "rat liver AMPK; rat liver AMPK, 1.0 mM ATP", "value": 14, "unit": "µM"},
      {"measurement": "IC50", "setting": "rat liver AMPK; rat liver AMPK, 1.0 mM ATP", "value": 6900, "unit": "µM"},
      {"measurement": "IC50/EC50", "setting": "rat liver AMPK; rat liver AMPK, 1.0 mM ATP", "value": 490},
      {"measurement": "Activation (extrapolated maximal activation)", "setting": "rat liver AMPK; rat liver AMPK, 5.0 mM ATP", "value": "3.7 (3.5-3.8) fold"},
      {"measurement": "EC50", "setting": "rat liver AMPK; rat liver AMPK, 5.0 mM ATP", "value": 36, "unit": "µM"},
      {"measurement": "IC50", "setting": "rat liver AMPK; rat liver AMPK, 5.0 mM ATP", "value": 17000, "unit": "µM"},
      {"measurement": "IC50/EC50", "setting": "rat liver AMPK; rat liver AMPK, 5.0 mM ATP", "value": "~500 and 470"},
      {"measurement": "degree of activation over basal", "setting": "rat liver AMPK; rat liver AMPK, 0.2 to 5 mM ATP", "value": "3- to 4 fold"},
      {"measurement": "effect of CD73 in the assay on allosteric activation by the nucleotide", "setting": "rat liver AMPK; rat liver AMPK", "value": "completely abolished"}
    ]}
  ]
}
